We go through 12 molecules from patent publication US20230348437A1, “COMPOUNDS, COMPOSITIONS AND METHODS” (Denali Therapeutics Inc., priority 2020, published 2023).

The subject of test [1] is NLRP3 (IL-1β release from THP-1 cells). As to the kind of experiment: IL-1β detection in IFN-γ differentiated THP-1 cells, LPS induction and ATP, 96 well format. Conditions: Homo sapiens, IFN-γ 25 ng/mL, LPS 50 ng/mL, ATP 5 mM, IL-1β ELISA, read-out: Activity (IC50 class). It is filed as cell-based. As to the method:
(§1) Compounds as provided herein were tested in the following assay. Cell culture medium employed contained RPMI 1640 medium (89%), FBS (10%), Pen/Strep (1%), and 2-mercaptoethanol (0.05 mM). Freezing medium was made up of 90% FBS and 10% DMSO. THP-1 cells were removed from the liquid nitrogen and placed into a 37° C. water bath to thaw, until signs of ice dissipated. The cells were then added to 9 mL of warm cell culture medium and centrifuged for 5 minutes at 1000 rpm. The supernatant was discarded, and the cells were resuspended in new cell culture medium. The THP-1 cells were then split and cultured in the cell culture medium, being passaged every 2-3 days (5×10^5 cells/mL passaged every two days, 3×10^5 cells/mL passaged every three days). Cell density was maintained between 5×10^5-1.5×10^6 viable cells/mL.
To freeze, cells were resuspended with fresh freezing medium, adjusting the cell density to between 3×10^6-10×10^6 cells/mL. The cell suspension was partitioned into 1 mL aliquots per vial, and the vials were transferred to a -80° C. freezer. After one day at -80° C., the cell vials were transferred to liquid nitrogen freezer for storage.
PBST solution was prepared by mixing 3600 mL of water, 400 mL of 10X PBS, and 4 mL of Tween 20. IFN-γ solution was reconstituted with 100 µL of water to obtain a 1 mg/mL solution, which was then diluted with 0.1 % BSA to provide a 100 ng/mL solution. The IFN-γ solution was stored at -20° C. LPS was reconstituted with 1 mL of PBS solution to obtain a 1 mg/mL stock solution, which was further diluted to 50 ng/mL with serum-free medium. The LPS solution was stored at 4° C.
The 96 well plates were then incubated at 37° C. under a humidified atmosphere of 5% CO2 for 24 h.
LPS induction: When IFN-γ treatment was completed, the supernatants were discarded by hand. 100 µL of a 1X solution of LPS in serum-free medium (50 ng/mL) was added. The plates were incubated in a 37° C. incubator under a humidified atmosphere of 5% CO2 for 4 h. Sample compounds were dissolved in DMSO and the compound solutions were dispensed to the wells using a Tecan D300e digital dispenser. The final concentration of DMSO for each well was 0.5%. The plates were then incubated at 37° C. under a humidified atmosphere of 5% CO2 for 1 h. 20 µL of a 6X solution of ATP was added (final concentration per well: 5 mM), and the plates incubated at 37° C. under a humidified atmosphere of 5% CO2 for 1 h. The supernatants were then collected and analyzed using an IL-Iβ detection kit. If needed, the test samples could be stored at -20° C. until analyzed.
Compound dilution: Compound solution source plates (20 µL of a 10 mM solution of each compound was delivered to the specified wells and stored in a nitrogen cabinet until tested.
Coat Elisa plate: The captured antibody (mAb Mt175) was diluted in PBS to a concentration of 2 µg/mL, and then used to coat the ELISA plate (SIGMA-P6366) overnight at 4° C.
The antibody coat was discarded and the plate was washed 4 times with PBST. The plate was blocked by adding 25 µL/well of blocking buffer (LiCor-927-40000) with 0.1% Tween 20, then incubated for 1 h at room temperature. The blocking buffer was then discarded and the plate was washed 4 times with PBST.
One hour before test sample addition, the sample plates were allowed to thaw at room temperature, centrifuged at 1000 rpm for 1 minute, and shaken for 30 seconds. 25 µL/well of the test samples were transferred to the ELISA plate, and the plate was incubated for 2 h at room temperature.
The test samples were discarded and the ELISA plate was washed 4 times with PBST. 15 µL/well of mAb7P10-biotin at 0.5 µg/mL (1:1000) in blocking buffer was then added to the ELISA plate and it was incubated for 1 h at room temperature.
The antibody was discarded and the ELISA plate was washed 4 times with PBST. Then 15 µL/well of streptavidin-HRP diluted 1:1000 in blocking buffer was added to the ELISA plate and it was allowed to incubate for 1 h at room temperature.
Background: ELISA stands for enzyme-linked immunosorbent assay.

For test [2], the system named is NLRP3 (IL-1β secretion from THP-1 cells). Description: IL-1β secretion assay in 384-well plates, PMA differentiated THP-1 cells, LPS and nigericin stimulation. It is filed as cell-based. The conditions noted are these: Homo sapiens; THP-1 cells, PMA 5 ng/mL, LPS 25 ng/mL, nigericin, IL-1β ELISA, 384-well; read-out: Activity. As to the method:
as §1, with “Cell culture medium employed contained RPMI 1640 medium (89%), FBS (10%), Pen/Strep (1%), and 2-mercaptoethanol (0.05 mM).” left out
PMA was dissolved in DMSO to make a stock solution at 5 mg/mL and stored in 10 µl aliquots at -20° C. for single use. PMA is added to normal growth medium. LPS was diluted with 1 mL of water solution to provide a 1 mg/mL stock solution and stored in 15 µl aliquots at -20° C. for single use. Nigericin is diluted in ice cold 100% ethanol to 5 mg/mL (6.7 mM) and stored in 75 µL aliquots at -20° C. for single use. […] The two control conditions used to qualify and normalize test compound dose-response curves were as follows: High Control = 25 ng/mL LPS, 5 µM Nigericin, 0.5% DMSO, Low Control = 25 ng/mL, LPS, 0.5% DMSO.
THP-1 cells were diluted to provide a suspension at a concentration of 1.0×10^6 cells/mL with the total volume of suspension required to enable the desired number of assay plates. The growth media was supplemented with PMA (5 ng/mL final concentration) and the cells were incubated at 37° C. under a humidified atmosphere of 5% CO2 for 40 h.
All media was carefully aspirated from each culture flask. The cells were washed carefully with 1x DPBS. The cells were then briefly digested with trypsin LE for 5 minutes at 23° C. and immediately resuspended in cell growth media. After resuspension, the cells were centrifuged at 1000 rpm for 3 minutes and the supernatant was discarded. The cells were resuspended in DPBS and once again centrifuged at 1000 rpm for 5 minutes. The supernatant was discarded and the cell pellet was resuspended in serum-free media supplemented with LPS (25 ng/mL final concentration) to enable the distribution of 30 K THP-1 cells within 45 µL of media into each well of 384-well PDL-coated plates. The 384-well plates were then incubated at 37° C. under a humidified atmosphere of 5% CO2 for 2 h. Following this period, test compounds were dispensed by Tecan across the desired concentration range with all wells normalized to a final 0.5 % DMSO concentration. The plates were then incubated at 37° C. under a humidified atmosphere of 5% CO2 for 1 h. Following this period, 5 µL of the […] nigericin stock solution was added to each of the appropriate wells and plates were centrifuged at 1000 rpm for 30 seconds. The plates were the immediately reintroduced to the incubator at 37° C. under a humidified atmosphere of 5% CO2 for 2 h. After this time, 35 µL/well of supernatant was collected and transferred into v-bottom plate and centrifuged at 1000 rpm for 1 minute. These supernatant aliquots were analyzed using an IL-Iβ detection kit as described below. If needed, the test samples could be snap frozen and stored at -80° C. until analyzed.
To prepare each ELISA plate, capture antibody (mAb Mt175) was diluted with PBS to a final concentration of 2 µg/mL and then 20 µL of this solution was added to each well of the ELISA plate. Each plate was allowed to incubate overnight at 4° C. The next day, the capture antibody solution was removed and discarded. […] Each ELISA plate was then allowed to incubate for 1 hour at 23° C. After this time, the blocking buffer was removed and discarded. Each ELISA plate was washed 4 times with PBST. During this time, the v-bottomed plates containing the supernatant aliquots from the assay run were centrifuged at 300 g for 5 minutes before transferring 15 µL/well of the supernatant sample to each ELISA plate. […]

For the molecule `CC(C)c1nn(CC(=O)N[C@H]2C[C@@](C)(O)C2)c(=O)cc1-c1ccccc1Cl` [Example 4, 2-(4-(2-Chlorophenyl)-3-isopropyl-6-oxopyridazin-1(6H)-yl)-N-(cis-3-hydroxy-3-methylcyclobutyl)acetamide], the results for the IC50 in test [1] and in test [2] were under 10 µM and 5.91 µM, respectively.
The like results for `CC(C)c1nn(CC(=O)N[C@H]2C[C@@](C)(O)C2)c(=O)cc1-c1ccc(F)cc1` [Example 10, 2-(4-(4-fluorophenyl)-3-isopropyl-6-oxopyridazin-1(6H)-yl)-N-(cis-3-hydroxy-3-methylcyclobutyl)acetamide] were, in that order, 10 to 15 µM and 50 µM.
The like results for `CC(C)c1nn(CC(=O)N[C@H]2C[C@@](C)(O)C2)c(=O)cc1-c1cccc(Cl)c1Cl` [Example 15, 2-(4-(2,3-dichlorophenyl)-3-isopropyl-6-oxopyridazin-1(6H)-yl)-N-(cis-3-hydroxy-3-methylcyclobutyl)acet amide] were, in that order, under 10 µM and 3.51 µM.
The like results for `Cc1cccc(-c2cc(=O)n(CC(=O)N[C@H]3C[C@@](C)(O)C3)nc2C(C)C)c1` [Example 9, N-(cis-3-hydroxy-3-methylcyclobutyl)-2-(3-isopropyl-6-oxo-4-(m-tolyl)pyridazin-1(6H)-yl)acetamide] were, in that order, under 10 µM and 2.27 µM.
Take `CC(C)c1nn(CC(=O)N[C@H]2C[C@@](C)(O)C2)c(=O)cc1-c1cccc(Br)c1` [Example 14, 2-(4-(3-bromophenyl)-3-isopropyl-6-oxopyridazin-1(6H)-yl)-N-(cis-3-hydroxy-3-methylcyclobutyl)acetamide]: the IC50 in test [1] is under 10 µM; in test [2], 1.49 µM.
The like results for `CC(C)c1nn(CC(=O)Nc2ncncc2F)c(=O)cc1-c1cccc(Cl)c1` [Example 6, 2-(4-(3-chlorophenyl)-3-isopropyl-6-oxopyridazin-1(6H)-yl)-N-(5-fluoropyrimidin-4-yl)acetamide] were, in that order, under 10 µM and 0.535 µM.
The like results for `CCc1nn(CC(=O)N[C@H]2C[C@@](C)(O)C2)c(=O)cc1-c1ccccc1` [Example 3, 2-(3-Ethyl-6-oxo-4-phenylpyridazin-1(6H)-yl)-N-(cis-3-hydroxy-3-methylcyclobutyl)acetamide] were, in that order, under 10 µM and 6.77 µM.
The like results for `CC(C)c1nn(CC(=O)N[C@H]2C[C@@](C)(O)C2)c(=O)cc1-c1cccc(C#N)c1` [Example 8, 2-(4-(3-cyanophenyl)-3-isopropyl-6-oxopyridazin-1(6H)-yl)-N-(cis-3-hydroxy-3-methylcyclobutyl)acetamide] were, in that order, 10 to 15 µM and 24.5 µM.
As to `CC(C)c1nn(CC(=O)N[C@H]2C[C@@](C)(O)C2)c(=O)cc1-c1ccccc1F` [Example 11, 2-(4-(2-fluorophenyl)-3-isopropyl-6-oxopyridazin-1(6H)-yl)-N-(cis-3-hydroxy-3-methylcyclobutyl)acetamide], the IC50 in test [1] was under 10 µM; in test [2], 2.88 µM.
In the same order, the values of `CC(C)c1nn(CC(=O)N[C@H]2C[C@@](C)(O)C2)c(=O)nc1-c1ccccc1` [Example 20, N-(cis-3-hydroxy-3-methylcyclobutyl)-2-(6-isopropyl-3-oxo-5-phenyl-1,2,4-triazin-2(3H)-yl)acetamide] are under 10 µM and 24 µM.
In the same order, the values of `COc1nn(CC(=O)N[C@H]2C[C@@](C)(O)C2)c(=O)cc1-c1ccccc1` [Example 19] are under 10 µM and 21.7 µM.
The like results for `CC(C)c1nn(CC(=O)N[C@H]2C[C@@](C)(O)C2)c(=O)cc1-c1cccc(C(F)(F)F)c1` [Example 13, N-(cis-3-hydroxy-3-methylcyclobutyl)-2-(3-isopropyl-6-oxo-4-(3-(trifluoromethyl)pheny 1)pyridazin-1(6H)-yl)acetamide] were, in that order, under 10 µM and 21.8 µM.
